Columns and labels:
MDA-MB-231 cells = experiment: HB-19 entry in MDA-MB-231 cells, immunofluorescence; assay type: cell-based, human; details: 5 µM HB-19/Btn, 1 hour
[1] = test system: MDA-MB-435 tumor-cell xenografts; experiment: MDA-MB-435 xenograft in nude mice; assay type: in vivo, human; details: HB-19 5 mg/kg, intraperitoneal, 3 times/week, 8 weeks, n = 10
Experimental: Figure 8 HB-19 inhibits tumor growth in the nude mice. (A) HB-19 inhibits the growth of MDA-MB-231 tumor-cell xenografts. Cells (2×10^6) were injected subcutaneously into the right flank of female nude mice. Two weeks later, mice with a palpable tumor of approximately 40 mm^3 in volume were randomly separated into three groups (n = 5) and were given peritumoral injections 3 times/week of 0.1 ml PBS alone (Control), HB-19 (5 mg/kg), or Tamoxifen (Tmx) 10 mg/kg) for 6 weeks. (B) HB-19 inhibits the growth of MDA-MB-435 tumor-cell xenografts. Cells (1×10^6) were injected in the mammary fat pad of female nude mice. Two weeks later, mice with a palpable tumor were randomly separated into three groups (n = 10) and were given intraperitoneal injections 3 times/week of 0.1 ml PBS alone (Control), HB-19 (5 mg/kg), or 5-fluouracil (5-FU, 40 mg/kg) for 8 weeks. At the end of each experiment (in A and B), mice were sacrificed and the tumors were excised and weighed. The results are presented as the mean weight ±standard deviation (±S.D.) obtained from the number of mice in each group. (C, D) Inhibition of tumor development in mice treated by intraperitoneal (i.p.) and subcutaneous (s.c.) administration of HB-19. MDA-MB-231 tumor bearing mice in three groups (n = 10) were treated with HB-19 (10 mg/kg) by i.p. or s.c. injections, 3 times/week for 28 days. […]

nucleolin = experiment: Nucleolin expression in HB-19 treated MDA-MB-231 cells (immunoblot / immunofluorescence); assay type: cell-based, human; details: for reduction of surface/cytoplasmic nucleolin: 10 µM HB-19, 37°C, vs untreated, immunoblot band intensity
Experimental: Figure 2 HB-19 binds nucleolin expressed on the surface of tumor cells and causes reduction of cytoplasmic/surface but not nuclear nucleolin. (A) HB-19/Btn forms a stable complex with nucleolin expressed on the surface of cells. MDA-MB-231 cells were incubated (45 min, 20°C) with 0, 1, 2, 4, 8 and 12 µM of HB-19/Btn before preparation of surface/cytoplasmic (i.e., nucleus-free) and nuclear extracts, [28]. Samples of surface nucleolin (purified using surface/cytoplasmic extracts from 2×10^7 cells) and crude surface/cytoplasmic and nuclear extracts (from 2×10^6 cells) were analyzed by immunoblotting for the detection of nucleolin using mAb D3. (B) Specific reduction of surface/cytoplasmic nucleolin in HB-19 treated cells. MDA-MB-231 cells were cultured (at 37°C) with 10 µM of HB-19 for 4, 24 and 48 hours before preparation of cytoplasmic and nuclear extracts. Material from 2×10^6 cells (Untreated or HB-19 treated cells as indicated − or + signs, respectively) was analyzed by immunoblotting for the detection of nucleolin. Sections of the gel at the position of the nucleolin bands are presented. […] The intensity of nucleolin protein bands quantified by using the NIH image software indicated 75% and 93% reduction of surface/cytoplasmic nucleolin in HB-19 treated cells at 24 and 48 hours, respectively, compared to the corresponding untreated cells. (C) HB-19 binds the cell surface and enters in the cytoplasm but not the nucleus. MDA-MB-231 cells were incubated at 20°C (for HB-19 Binding) or 37°C (for HB-19 Entry) with 5 µM of HB-19/Btn for 1 hour before fixation in PFA or PFA-Triton, respectively. Fixed cells were successively incubated with rabbit anti-biotin and goat Texas Red-conjugated anti-rabbit IgG and the nuclei were colored with DAPI. Scans corresponding to the cross-section of cells are shown, each with or without the DAPI. (D) Nucleolar nucleolin is not affected in HB-19 treated cells. MDA-MB-231 cells cultured in the absence (Control Cells) or presence of 10 µM of HB-19 for 48 hours (HB-19 Treated Cells) were fixed in PFA-Triton and processed for fluorescence microscopy.
Cells washed in phosphate-buffered saline (PBS) were lysed in buffer E (20 mM Tris–HCl, pH 7.6, 150 mM NaCl, 5 mM MgCl2, 0.2 mM phenylmethylsulfonyl fluoride (PMSF), 5 mM β-mercaptoethanol, aprotinin (1000 U/ml) and 0.5% Triton X-100) and the nuclei were pelleted by centrifugation (1000g for 5 min). […] Aliquots of crude cell extracts were diluted in 2 fold concentrated electrophoresis sample buffer containing SDS, heated and analyzed by SDS- polyacrylamide gel electrophoresis (PAGE). […]

## pseudo-tripeptide Lysψ(CH2N)-Pro-Arg coupled to a template (H2NLys-Lys-Lys-Gly-Pro-Lys-Glu-Lys-AhxCONH2) [HB-19, pseudopeptide presenting pentavalently the pseudo-tripeptide Lysψ(CH2N)-Pro-Arg coupled to a template]
MDA-MB-231 cells; 37°C
  internalization and subcellular localization: internalized and is concentrated in the cytoplasm without translocation into the nucleus
MDA-MB-231 cells; 20°C
  internalization at 20°C: remains attached to the cell surface without entering the cytoplasm
[1]
  inhibition of tumor growth: 57%
nucleolin; 10 µM HB-19, 24–48 hours
  level and nucleolar localization of nuclear nucleolin: without apparent modification
nucleolin; 24 hours
  reduction of surface/cytoplasmic nucleolin: 75%
nucleolin; 48 hours
  reduction of surface/cytoplasmic nucleolin: 93%
nucleolin; 10 µM HB-19, stained gel
  expression of other cytoplasmic proteins: not affected

Source: PMC2424174, “Suppression of Tumor Growth and Angiogenesis by a Specific Antagonist of the Cell-Surface Expressed Nucleolin” (PLoS ONE, 2008)
